Experimental data published in patent US12310942B2, “Pharmaceutical compositions comprising statins and hyaluronic acid derivatives” (FIDIA FARMACEUTICI S.p.A., priority 2019, dated 2025).
Read-outs that look alike come from different tables or passages of the source.

Tested on: bovine cartilage biopsies
Settings: IL-1β and OSM 10 ng/mL, 21 days, FIG. 3
Description: For this purpose, cartilage biopsies were collected from the patello-femoral sulcus and femoral condyles from the femur of 1 adult bovine (15-18 months). […] The biopsies (Ø=3 mm) were taken with a steel punch.
Each biopsy was transferred to a well of a 48-well MW and washed twice with 500 μL PBS 1× (Euroclone, cat. no. ECB4004L, Italy). […] The biopsies were incubated for 24 h at 37° C. 5% CO2. After incubation, the biopsies were washed with 500 μL PBS 1×, and 500 μL DMEM/F-12+2% FBS containing the dilution of the compound to be tested were added to all the wells. Each statin was used at the concentrations of 10 μM and 2.5 μM. 4 biopsies were used for each condition. After 7, 14 and 21 days, the biopsy culture medium was aspirated and replaced with 500 μL of fresh culture medium containing the appropriate concentrations of pro-inflammatory cytokines (IL-1β and OSM, 10 ng/mL) and the active ingredients to be tested. The biopsy culture medium was harvested after 21 days and used to determine the soluble collagen content. The Sircol assay was conducted according to the manufacturer's instructions, and quantitation was effected by spectrophotometric reading at 555 nm.

SMILES	collagen release induced by IL-1β and OSM (statin 2.5 μM)	collagen release induced by IL-1β and OSM (statin 10 μM)
CC(C)c1c(C(=O)Nc2ccccc2)c(-c2ccccc2)c(-c2ccc(F)cc2)n1CC[C@@H](O)C[C@@H](O)CC(=O)O [atorvastatin]	significant reduction in collagen release	significant reduction in collagen release
CC[C@H](C)C(=O)O[C@H]1C[C@@H](C)C=C2C=C[C@H](C)[C@H](CC[C@@H]3C[C@@H](O)CC(=O)O3)[C@H]21 [lovastatin]	values comparable to those of the untreated control	significant reduction in collagen release
